Each structure is given as a SMILES string. Where two headings read alike, the source gives them in different places.

This is an account of results in patent US20240058392A1, “COMPOSITION COMPRISING SEA CUCUMBER GENITAL GLAND EXTRACT, COMPOUND DERIVED FROM SEA CUCUMBER OVARY EXTRACT, AND USE THEREOF” (BIOINFORMATICS & MOLECULAR DESIGN RESEARCH CENTER, priority 2020, published 2024).

Data set [1] has as its system 3T3-L1 cells. Put plainly: Glucose Uptake-Glo Assay, saponin compounds. In kind it is cell-based. Conditions: Mus musculus, read-out: Fold Relative to Control (glucose uptake). On the procedure:
The 3T3-L1 cells were cultured in a high glucose DMEM medium in which 10% Calf serum and penicillin-streptomycin were added, and subcultured per 2-3 days. […] After 2 days, it was replaced with a medium containing insulin, and the medium was replaced again per 2 days to induce differentiation.
For the differentiation-completed 3T3-L1 cells, starvation was conducted for 16 hours, and then a sea cucumber-derived single compound was treated in a serum-free medium at a concentration of 2.5 ug/mL for 6 hours. The cultured supernatant was recovered and for the 3T3-L1 cells, using Glucose Uptake-Glo Assay Kit, the glucose transport activity degree was measured using a luminometer.

Data set [2] relates to FAS, PPARγ, C/EBPα, and FABP4. Put plainly: Expression of adipogenesis-related proteins in 3T3-L1 cells treated with single compounds. It is filed as cell-based. On the procedure:
In order to investigate the effect on expression of the adipocytes differentiation-related proteins by the sea cucumber extract, expression of the related proteins was confirmed through western blot. The differentiation-completed 3T3-L1 cells were washed with PBS, and then lysis was conducted with RIPA buffer, and then the proteins were separated by molecular weight through SDS-PAGE. After that, it was transferred to a PVDF membrane and it was blocked using 5% skim milk for 30 minutes. Then, it was reacted with a primary antibody, and then a secondary antibody was attached to confirm protein expression using an ECL solution.
In order to figure out the mechanism of the fat accumulation inhibitory efficacy of the single compound examined above, the degree of expression of proteins of FAS, PPARγ, C/EBPα, and FABP4, which were adipogenesis-related proteins was confirmed.

Data set [3] has as its system 3T3-L1 cells. The data set is described as follows: 3T3-L1 cell viability of single compounds separated from sea cucumber ovary extract. As to conditions: single compounds 2.5-5 μg/ml.
Data set [4] concerns 3T3-L1 cells. Put plainly: Oil red O staining, single compounds of sea cucumber ovary extract. In kind it is cell-based. On the procedure: The differentiation-completed 3T3-L1 cells were fixed with 4% formaldehyde for 1 hour, and then fats were stained using a 0.5% Oil red O staining solution to confirm the degree of differentiation. For quantitative analysis of adipose differentiation, the dye stained in the cells was dissolved with 100% isopropyl alcohol and the absorbance was measured at 500 nm.
In order to investigate the effect on adipose differentiation of the 3T3-L1 cells of the single compound in the sea cucumber ovary extract, a total 8 of compounds were treated with a differentiation medium at a concentration of 2.5 and 5 μg/ml for 48 hours.

Data set [5] has as its system 3T3-L1 cells.
[6] abbreviates: differentiated 3T3-L1 cells, compound 2.5 ug/mL, 6 hours, serum-free medium.
Setting [7] is: 1 μg/ml, compared to the control group.

For `C=C(C)CCC[C@](C)(O)[C@@H]1[C@@H]2CC3(C)C4=CCC5C(C)(C)[C@@H](O[C@@H]6OCC(O[C@@H]7OC(CO)C(O)[C@H](O)C7O)[C@H](O)C6O[C@@H]6OC(CO)C(O[C@@H]7OC(CO)C(O)[C@H](O[C@@H]8OC(CO)C(O)[C@H](O)C8O)C7O)[C@H](O)C6O)CC[C@]5(C)C4CCC13C(=O)O2` (stereo partly shown) [S1], the fold induction at 2.5 µg/mL in the data set on 3T3-L1 cells [1] (setting [6]) turned out to be 1.25.

Take `C=C(C)CCC[C@](C)(O)[C@@H]1[C@@H]2CC3(C)C4=CCC5C(C)(C)[C@@H](O[C@@H]6OCC(O[C@@H]7OC(CO)C(O)[C@H](O)C7O)[C@H](O)C6O[C@@H]6OC(C)C(O[C@@H]7OC(CO)C(O)[C@H](O[C@@H]8OC(CO)C(O)[C@H](O)C8O)C7O)[C@H](O)C6O)CC[C@]5(C)C4CCC13C(=O)O2` (stereo partly shown) [S2]: in the data set with 3T3-L1 cells [1] (setting [6]), the fold induction at 2.5 µg/mL stood at 1.43. The “expression of adipogenesis-related proteins FAS, PPARγ, C/EBPα, and FABP4” value (from here on “expression”) in data set [2] (compared to the control, concentration not given) is recorded as “a significant difference in protein expression was not shown”.

What is called inhibition is the drop in the measured response relative to a control, in per cent. For the compound `C=C(C)CCC[C@](C)(O)[C@@H]1[C@@H]2CC3(C)C4=CCC5C(C)(C)[C@@H](O[C@@H]6OCC(O[C@@H]7OC(CO)C(O)[C@H](O)C7O)[C@H](O)C6O[C@@H]6OC(C)C(O[C@@H]7OC(CO)C(O)[C@H](O[C@@H]8OC(CO)C(O)[C@H](OC)C8O)C7O)[C@H](O)C6O)CC[C@]5(C)C4CCC13C(=O)O2` (stereo partly shown) [S3], the fold induction at 2.5 µg/mL with 3T3-L1 cells [1] (setting [6]) was found to be 1.1. Moreover, the “change of 3T3-L1 cell viability” value in the data set with 3T3-L1 cells [3] is “a significant decrease was shown”. In addition, in the data set with 3T3-L1 cells [4] (Mus musculus, 3T3-L1, 1 μg/ml (lowest of the series from 1 μg/ml to 5 μg/ml), read-out: inhibition of fat accumulation), the inhibition at 1 µg/mL is around 16%. Further, the inhibition at 5 µg/mL in the data set with 3T3-L1 cells [4] (Mus musculus, 3T3-L1, 5 μg/ml (highest of the series from 1 μg/ml to 5 μg/ml), read-out: inhibition of fat accumulation) is around 80%. For the same compound, the “inhibition of fat accumulation” value in the data set with 3T3-L1 cells [4] (middle concentration of the series from 1 μg/ml to 5 μg/ml (2.5 μg/ml by the method)) is around 40%. Further, the “expression” value is “definitely reduced” in data set [2] (setting [7]) and “expression of the related proteins was definitely reduced” in data set [2] (from 2.5 μg/ml).

As for `C=C(C)CCC[C@@]1(C)OC(=O)C23CC=C4C(CCC5C(C)(C)[C@@H](O[C@@H]6OCC(O[C@@H]7OC(CO)C(O)[C@H](O[C@@H]8OC(CO)C(O)[C@H](OC)C8O)C7O)[C@H](O)C6O[C@@H]6OC(CO)C(O[C@@H]7OC(CO)C(O)[C@H](O[C@@H]8OC(CO)C(O)[C@H](O)C8O)C7O)[C@H](O)C6O)CC[C@]45C)C2(C)CC(=O)C31` (stereo partly shown) [S4], in the data set on 3T3-L1 cells [1] (setting [6]), the fold induction at 2.5 µg/mL was determined as 1.6. Also, the “change of 3T3-L1 cell viability” value with 3T3-L1 cells [3] is reported as “a significant decrease was shown”. In addition, the “expression” value in data set [2] (setting [7]) is “definitely reduced”; in data set [2] (from 2.5 μg/ml) it was “expression of the related proteins was definitely reduced”.

Take `C=C(C)CCC[C@@]1(C)OC(=O)C23CC=C4C(CCC5C(C)(C)[C@@H](O[C@@H]6OCC(O[C@@H]7OC(CO)C(O)[C@H](O[C@@H]8OC(CO)C(O)[C@H](O)C8O)C7O)[C@H](O)C6O[C@@H]6OC(CO)C(O[C@@H]7OCC(O)[C@H](O[C@@H]8OC(CO)C(O)[C@H](OC)C8O)C7O)[C@H](O)C6O)CC[C@]45C)C2(C)CC(=O)C31` (stereo partly shown) [S5, holotoxin D1]: the fold induction at 2.5 µg/mL in the data set on 3T3-L1 cells [1] (3T3-L1, 6 h) came out at 1.38. Besides, the “change of 3T3-L1 cell viability” value in the data set on 3T3-L1 cells [5] is listed as “a significant decrease was shown”. Further, in data set [2], the “expression” value is “expression of the related proteins was definitely reduced”.

Turning to `C=C(C)CCC[C@@]1(C)OC(=O)C23CC=C4C(CCC5C(C)(C)[C@@H](O[C@@H]6OCC(O[C@@H]7OC(CO)C(O)[C@H](O[C@@H]8OC(CO)C(O)[C@H](O)C8O)C7O)[C@H](O)C6O[C@@H]6OC(C)C(O[C@@H]7OC(CO)C(O)[C@H](O[C@@H]8OC(CO)C(O)[C@H](OC)C8O)C7O)[C@H](O)C6O)CC[C@]45C)C2(C)CC(=O)C31` (stereo partly shown) [S6, holotoxin B], the fold induction at 2.5 µg/mL in the data set with 3T3-L1 cells [1] (3T3-L1, 6 h) amounted to 1.24. For the same compound, the “expression” value in data set [2] is on record as “a definite decrease in protein expression”.

Turning to `C=C(C)CCC[C@@]1(C)OC(=O)C23CC=C4C(CCC5C(C)(C)[C@@H](O[C@@H]6OCC(O[C@@H]7OC(CO)C(O)[C@H](O[C@@H]8OC(CO)C(O)[C@H](OC)C8O)C7O)[C@H](O)C6O[C@@H]6OC(C)C(O[C@@H]7OC(CO)C(O)[C@H](O[C@@H]8OC(CO)C(O)[C@H](OC)C8O)C7O)[C@H](O)C6O)CC[C@]45C)C2(C)CC(=O)C31` (stereo partly shown) [S8, holotoxin A], in the data set with 3T3-L1 cells [1] (3T3-L1, 6 h), the fold induction at 2.5 µg/mL was determined as 1.43. For the same compound, the “expression” value in data set [2] was “a definite decrease in protein expression”.

For the compound `C=C(C)CCC[C@](C)(O)[C@@H]1[C@@H]2CC3(C)C4=CCC5C(C)(C)[C@@H](O[C@@H]6OCC(O[C@@H]7OC(CO)C(O)[C@H](O)C7O)[C@H](O)C6O[C@@H]6OC(C)C(O[C@@H]7OC(CO)C(O)[C@H](O)C7O)[C@H](O)C6O)CC[C@]5(C)C4CCC13C(=O)O2` (stereo partly shown) [S9], the fold induction at 2.5 µg/mL in the data set with 3T3-L1 cells [1] (setting [6]) stood at 1.03.
